Measured values reported in ChEMBL document CHEMBL4342454, “Unraveling Structures Containing Highly Conjugated Pyrrolo[4,3,2-de]quinoline Cores That Are Deficient in Diagnostic Proton NMR Signals” (J Nat Prod, 2020).
Calls of active or inactive are those of the source.

How the values were obtained:
Homo sapiens [1] = species on record: Homo sapiens; assay: Cytotoxicity against human D283 cells after 48 hrs by sulforhodamine B assay; assay type: functional, cell-based
A673 = assay: Cytotoxicity against human A673 cells after 48 hrs by sulforhodamine B assay; assay type: functional, cell-based
[2] = test system: Yersinia pseudotuberculosis; assay: Inhibition of Yersinia pseudotuberculosis Type 3 secretion system protein by SDS-PAGE analysis
Homo sapiens [3] = species on record: Homo sapiens; assay: Cytotoxicity against human SJCRH30 cells after 48 hrs by sulforhodamine B assay; assay type: functional, cell-based
Hep293TT = assay: Cytotoxicity against human Hep293TT cells after 48 hrs by sulforhodamine B assay; assay type: functional, cell-based

CN1CCc2c[nH]c3c2c1cc1[o+]c2cc4c5c(c[nH]c5c2nc13)CCN4C
inactive: Activity (Homo sapiens [1]) | Activity (A673) | inhibition [2] | Activity (Homo sapiens [3]) | Activity (Hep293TT)

Cc1nc2c(cc1-c1ccc(O)cc1)cc1c3c(c[nH]c32)CCN1C
inactive: Activity (Homo sapiens [1]) | Activity (A673) | inhibition [2] | Activity (Homo sapiens [3]) | Activity (Hep293TT)
